Data from the supplement of paper PMC9549728.

Columns and labels:
Test in all cases: IC50 (viability, PrestoBlue) (log10 nM)
Conditions in all cases: exposure time: 72 h
[1] = tested on: murine gastric organoid WNT-activated (Apc fl/fl; Tp53 R172H)
Procedure: (§1)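 Murine gastric corpus organoids (normal uninduced; RAS-activated Kras G12D/Tp53 R172H; diffuse Cdh1/Apc loss; WNT-activated Apc loss/Tp53 R172H) were seeded in Matrigel into pre-spotted 384-well plates. The plates held a 196-compound library at 6.7 nM to 25,004 nM (9 doses) and were incubated 72 h. Viability was read by PrestoBlue fluorescence (560/590 nm). IC50 came from non-linear regression (Prism), reported as log10 IC50 in nM, mean of 3 passages x 2 wells.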

[2] = tested on: murine normal gastric organoid
Procedure: as §1

[3] = tested on: murine gastric organoid RAS-activated (Kras G12D; Tp53 R172H)
Procedure: as §1

[4] = tested on: murine gastric organoid diffuse (Cdh1 fl/fl; Apc fl/fl)
Procedure: as §1

## CCN1CCN(Cc2ccc(Nc3ncc(F)c(-c4cc(F)c5nc(C)n(C(C)C)c5c4)n3)nc2)CC1
[1]
  IC50 (log10 nM): 2.47
[2]
  IC50 (log10 nM): 2.94
[3]
  IC50 (log10 nM): 2.88
[4]
  IC50 (log10 nM): 2.7

## CCNC(=O)C[C@@H]1N=C(c2ccc(Cl)cc2)c2cc(OC)ccc2-n2c(C)nnc21
[1]
  IC50 (log10 nM): 1.54
[2]
  IC50 (log10 nM): 2.77
[3]
  IC50 (log10 nM): 3.3
[4]
  IC50 (log10 nM): 3.13

## COc1ccc(-c2cc3c(C)nc(N)nc3n([C@H]3CC[C@H](OCCO)CC3)c2=O)cn1
[1]
  IC50 (log10 nM): 2.11
[2]
  IC50 (log10 nM): 2.08
[3]
  IC50 (log10 nM): 2.17
[4]
  IC50 (log10 nM): 2

## Nc1ncn([C@@H]2O[C@H](CO)[C@@H](O)[C@H]2O)c(=O)n1 [5-Azacytidine]
[1]
  IC50 (log10 nM): 3.58
[2]
  IC50 (log10 nM): 3.78
[3]
  IC50 (log10 nM): 3.64
[4]
  IC50 (log10 nM): 3.5

## Nc1nc(=S)c2[nH]cnc2[nH]1 [6-Thioguanine]
[1]
  IC50 (log10 nM): 1.35
[2]
  IC50 (log10 nM): 3.73
[3]
  IC50 (log10 nM): 3.8
[4]
  IC50 (log10 nM): 4.29

## CC1(C)CCC(CN2CCN(c3ccc(C(=O)NS(=O)(=O)c4ccc(NCC5CCOCC5)c([N+](=O)[O-])c4)c(Oc4cnc5[nH]ccc5c4)c3)CC2)=C(c2ccc(Cl)cc2)C1 [ABT-199]
[1]
  IC50 (log10 nM): 3.1
[2]
  IC50 (log10 nM): 3.61
[3]
  IC50 (log10 nM): 4.06
[4]
  IC50 (log10 nM): 4.17

## Cc1c2oc3c(C)ccc(C(=O)N[C@@H]4C(=O)N[C@H](C(C)C)C(=O)N5CCC[C@H]5C(=O)N(C)CC(=O)N(C)[C@@H](C(C)C)C(=O)O[C@@H]4C)c3nc-2c(C(=O)N[C@@H]2C(=O)N[C@H](C(C)C)C(=O)N3CCC[C@H]3C(=O)N(C)CC(=O)N(C)[C@@H](C(C)C)C(=O)O[C@@H]2C)c(N)c1=O [Actinomycin D]
[1]
  IC50 (log10 nM): < 0.826
[2]
  IC50 (log10 nM): < 0.826
[3]
  IC50 (log10 nM): < 0.826
[4]
  IC50 (log10 nM): < 0.826

## CN(C)C/C=C/C(=O)Nc1cc2c(Nc3ccc(F)c(Cl)c3)ncnc2cc1O[C@H]1CCOC1 [Afatinib]
[1]
  IC50 (log10 nM): 1.27
[2]
  IC50 (log10 nM): 1.55
[3]
  IC50 (log10 nM): 3.6
[4]
  IC50 (log10 nM): 1.95

## COc1cc(Nc2ncc3c(n2)-c2ccc(Cl)cc2C(c2c(F)cccc2OC)=NC3)ccc1C(=O)O [Alisertib]
[1]
  IC50 (log10 nM): 3.02
[2]
  IC50 (log10 nM): 2.47
[3]
  IC50 (log10 nM): 2
[4]
  IC50 (log10 nM): 2.98

## CN(C)CCN1C(=O)c2cccc3cc(N)cc(c23)C1=O [Amonafide]
[1]
  IC50 (log10 nM): 2.39
[2]
  IC50 (log10 nM): 3.1
[3]
  IC50 (log10 nM): 3.03
[4]
  IC50 (log10 nM): 3.23

## CNC(=O)c1ccccc1Sc1ccc2c(/C=C/c3ccccn3)n[nH]c2c1 [Axitinib]
[1]
  IC50 (log10 nM): 2.75
[2]
  IC50 (log10 nM): 3.98
[3]
  IC50 (log10 nM): 3.3
[4]
  IC50 (log10 nM): 3.78

## O=C(/C=C/c1cccc(S(=O)(=O)Nc2ccccc2)c1)NO [Belinostat]
[1]
  IC50 (log10 nM): 3.27
[2]
  IC50 (log10 nM): 3.2
[3]
  IC50 (log10 nM): 2.61
[4]
  IC50 (log10 nM): 3.29

## Cn1cnc2c(F)c(Nc3ccc(Br)cc3F)c(C(=O)NOCCO)cc21 [Binimetinib]
[1]
  IC50 (log10 nM): 2.96
[2]
  IC50 (log10 nM): 2.09
[3]
  IC50 (log10 nM): 2.28
[4]
  IC50 (log10 nM): 3.03

## Cc1c(N)nc([C@H](CC(N)=O)NC[C@H](N)C(N)=O)nc1C(=O)N[C@H](C(=O)N[C@H](C)[C@@H](O)[C@H](C)C(=O)N[C@H](C(=O)NCCc1nc(-c2nc(C(=O)NCCC[S+](C)C)cs2)cs1)[C@@H](C)O)[C@@H](OC1OC(CO)C(O)C(O)C1OC1OC(CO)C(O)C(OC(N)=O)C1O)c1cnc[nH]1 (some centres undefined) [Bleomycin]
[1]
  IC50 (log10 nM): > 4.4
[2]
  IC50 (log10 nM): 3.85
[3]
  IC50 (log10 nM): 3.83
[4]
  IC50 (log10 nM): 3.57

## CC(C)C[C@H](NC(=O)[C@H](Cc1ccccc1)NC(=O)c1cnccn1)B(O)O [Bortezomib]
[1]
  IC50 (log10 nM): 1.16
[2]
  IC50 (log10 nM): 1.14
[3]
  IC50 (log10 nM): 0.871
[4]
  IC50 (log10 nM): 1.1

## COc1cc(Nc2c(C#N)cnc3cc(OCCCN4CCN(C)CC4)c(OC)cc23)c(Cl)cc1Cl [Bosutinib]
[1]
  IC50 (log10 nM): 3.01
[2]
  IC50 (log10 nM): 3.96
[3]
  IC50 (log10 nM): 3.57
[4]
  IC50 (log10 nM): 3.58
